Data taken from patent publication US20220241223A1, “USE OF DISULFIRAM OR ITS DERIVATIVES FOR THE TREATMENT OF MITOCHONDRIAL DISEASES OR DYSFUNCTION” (Universite D'angers, priority 2019, published 2022).

Tests used:
[1] = test system: all the tested mutant strains; test: Halo test of growth on respiratory medium, all strains together (FIG. 1A); type: cell-based, Saccharomyces cerevisiae; conditions: at different extents
Procedure: A/ Effect of DSF on growth of various mutant yeast strains on a respiratory medium as detected by halo tests.
Each of the various Saccharomyces cerevisiae yeast strains used in examples 1 to 3 contain different specific mutations modeling human mutations resulting in mitochondrial diseases. At different extents, all these yeast strains present growth defect when grown on respiratory medium such as ethanol or glycerol at 28° C. or 36° C. (depending on the strain). […]
More precisely, 200 μL of the various yeast mutant strain grown in liquid YPD rich fermentable medium (1% Yeast Extract, 0.5% Bacto Peptone, 2% Glucose) at 0.4 OD600 were spread on agar-based solid respiratory medium: either YPG (1% Yeast Extract, 0.5% Bacto Peptone, 2% glycerol) or YPE (1% Yeast Extract, 0.5% Bacto Peptone, 2% ethanol). Small sterile filters were then placed on the agar surface and increasing concentrations of DSF were added to the filters at the indicated quantities. […]

[2] = test system: A29G, shy1 and coa6 yeast mutant strains; test: Yeast respiration, O2 consumption rate (Hansatech electrode); type: cell-based, Saccharomyces cerevisiae; conditions: FIG. 2; 200 nM for A29G, 300 nM for shy1 and coa6 mutants; with or without CCCP
Excerpt: FIG. 2: Effect of DSF on O2 consumption rate (VO2, nmol O2 10^7 cell/min) of various yeast mutant strains, with or without CCCP. The data are the means±SEM of at least three independent experiments. The significance of variations among samples and controls was estimated using Anova multifactorial test: Tukey; (* P value<0.05; ** P<0.01; *** P<0.001; **** P<0.0001)).
The respiratory intensity corresponds to the amount of oxygen consumed relative to time and to the quantity of cells. It reflects the oxidative metabolism of cells. Oxygen consumption was measured using a Hansatech electrode. Cells were grown for 7-8 generations at 28° C. for 24 or 48 h in YPE medium (1% Yeast Extract, 0.5% Bacto Peptone, 2% ethanol) or galactose medium (1% Yeast Extract, 0.5% Bacto Peptone, 2% galactose) supplemented with either DMSO or DSF (200 nM for A29G; 300 nM for shy1 and coati mutants). […] 02 consumption was recorded with or without CCCP (Carbonyl Cyanide m-Chloro-Phenyl hydrazine; an uncoupling agent that dissipates the proton gradient that is established during the normal activity of the respiratory chain. In the presence of CCCP, the maintenance of an electrical potential across the inner mitochondrial membrane is impossible and respiration becomes maximal. The 02 consumption rate was calculated based on the linear part of 02 consumption.

[3] = test system: neuronal MELAS cybrid cells; test: Lactate production in MELAS cybrid cells; type: cell-based, human; conditions: FIG. 8, MELAS cybrids
Procedure: FIG. 8: Determination of the maximal DSF concentration nontoxic for lactate production in neuronal MELAS cybrid cells. Range of DSF concentrations from 100 nM to 10 μM.
Lactate concentrations in the culture media were determined by spectrophotometry on a Hitachi-Roche apparatus following the recommendations of the manufacturer (Roche Diagnosis, Bale, Switzerland). Increased lactate concentration in supernatant of cell culture is witnessing glycolytic adaptation at the expense of mitochondrial function with reduced oxidative mitochondrial metabolism correlated with high concentrations and drug toxicity of DSF.

[4] = in e.g. alcohol or chloroform; cited from earlier work

Compound: CCN(CC)C(=S)SSC(=S)N(CC)CC [DSF, 1-(diethylthiocarbamoyldisulfanyl)-N,N-diethyl-methanethioamide]
- effect on growth defect on non-fermentable (respiratory) medium [1]: suppresses the growth defect
- effect on yeast respiration (O2 consumption rate) [2]: increases the yeast respiration
- DSF concentration with impact on lactate production (drug toxicity) ([3]; also at 3 μM or 10 μM): ≥ 1 µM
- DSF concentration with no impact on lactate production ([3]; range 100 nM to 10 μM): lower than 1 μM
- solubility [4]: high solubility
